# System: HIV-1 (IIIB) in MT-4 cells
# Assay: microbe, parasite or virus in culture
# Format: cell-based
# Settings: Human immunodeficiency virus 1, IIIB, MT4, MT-4 cells, HIV-1; read-out: MT4 EC50
row,Compound,EC50
1,CC(C)(C)C[C@]1(c2ccc(-c3cnn(C(F)F)c3)cc2)NC(=N)N([C@H](COC(=O)NC(C)(C)C(F)F)c2ccc(Cl)c(-c3nncn3C(F)F)c2)C1=O [Compound 91],200 nM
2,[2H]C([2H])([2H])n1cnc(-c2cc([C@@H](COC(=O)NC(C)(C)C(F)F)N3C(=N)N[C@](C[C@]4(C)CC4(F)F)(c4ccc(-c5cnn(C(F)F)c5)cc4)C3=O)ccc2Cl)n1 [Compound 97],18.9 nM
3,CC(C)(C)C[C@]1(c2ccc(-c3ncccn3)cc2)NC(=N)N([C@H](COC(=O)NC2(C(F)(F)F)CC2)c2ccc(Cl)c(-c3ncn[nH]3)c2)C1=O [Compound 105],36.7 nM
4,CC(C)(C)C[C@]1(c2ccc(-c3cnn(C(F)F)c3)cc2F)NC(=N)N([C@H](COC(=O)NC2(C(F)(F)F)CC2)c2ccc(Cl)c(-c3ncn[nH]3)c2)C1=O [Compound 110],96 nM
5,CC(C)(F)C[C@]1(c2ccc(-c3cnn(C(F)F)c3)cc2)NC(=N)N([C@H](COC(=O)NC(C)(C)C(F)F)c2ccc(Cl)c(-c3ncnn3C(F)F)c2)C1=O [Compound 129],27.3 nM
6,CC(C)(F)C[C@]1(c2ccc(-c3cnn(C(F)F)c3)cc2)NC(=N)N([C@H](COC(=O)NC2(C(F)(F)F)CC2)c2ccc(Cl)c(-c3ncnn3C(F)F)c2)C1=O [Compound 134],18.5 nM
7,CC(C)(C[C@]1(c2ccc(-c3cnn(C4CC4)c3)cc2)NC(=N)N([C@H](COC(=O)NC2(C(F)(F)F)CC2)c2ccc(Cl)c(-c3ncnn3C(F)F)c2)C1=O)C(F)(F)F [Compound 135],13.6 nM
8,C[C@H](NC(=O)OC[C@H](c1ccc(Cl)c(-c2ncnn2C(F)F)c1)N1C(=N)N[C@](CC(C)(C)C(F)(F)F)(c2ccc(-c3cnn(C4CC4)n3)cc2)C1=O)C(F)(F)F [Compound 153],14 nM
9,CC(C)(C[C@]1(c2ccc(-c3cnn(C4CC4)n3)cc2)NC(=N)N([C@H](COC(=O)NC2(C(F)(F)F)CC2)c2ccc(Cl)c(-c3ncnn3C(F)F)c2)C1=O)C(F)F [Compound 154],19.7 nM
10,CC(C)(C[C@]1(c2ccc(-c3cnn(C4CC4)n3)cc2)NC(=N)N([C@H](CNC(=O)CC(F)(F)F)c2ccc(Cl)c(-c3ncnn3C(F)F)c2)C1=O)C(F)(F)F [Compound 160],12.6 nM
11,C[C@H](NC(=O)OC[C@H](c1ccc(Cl)c(-c2ncnn2C(F)F)c1)N1C(=N)N[C@](CC(C)(C)C)(c2ccc(-c3cnn(C(F)F)n3)cc2)C1=O)C(F)(F)F [Compound 163],9.06 nM
12,CC(C)(C)C[C@]1(c2ccc(-c3cnn(C(F)F)c3)cc2)NC(=N)N([C@H](COC(=O)NC(C)(C)C(F)(F)F)c2ccc(Cl)c(-n3ncnc3C(F)F)c2)C1=O [Compound 182],12 nM
13,CC(C)(C)C[C@]1(c2ccc(-c3cnn(C4CC4)n3)cc2F)NC(=N)N([C@H](COC(=O)NC2(C(F)(F)F)CC2)c2ccc(Cl)c(-n3ncnc3C(F)F)c2)C1=O [Compound 224],19.5 nM
14,CC(C)C[C@]1(c2ccc(-c3cnn(C(F)F)c3)cc2F)NC(=N)N([C@H](COC(=O)NC2(C(F)(F)F)CC2)c2ccc(Cl)c(-n3ncnc3C(F)F)c2)C1=O [Compound 278],23.6 nM
15,Cn1ccc(-c2ccc([C@@]3(CC(C)(C)C)NC(=N)N([C@H](COC(=O)NC4(C(F)(F)F)CC4)c4ccc(Cl)c(-n5ncnc5C(F)F)c4)C3=O)cc2F)n1 [Compound 289],8.26 nM
16,CC(C)(C)C[C@]1(c2ccc(-c3cnn(S(C)(=O)=O)c3)c(F)c2)NC(=N)N([C@H](COC(=O)NC2(C(F)(F)F)CC2)c2ccc(Cl)c(-n3ncnc3C(F)F)c2)C1=O [Compound 290],11.6 nM
17,CC(C)(C)C[C@]1(c2ccc(-c3cnn(S(=O)(=O)C4CC4)c3)c(F)c2)NC(=N)N([C@H](COC(=O)NC2(C(F)(F)F)CC2)c2ccc(Cl)c(-n3ncnc3C(F)F)c2)C1=O [Compound 291],11.8 nM
18,Cn1ccc(-c2ccc([C@@]3(CC(C)(C)C)NC(=N)N([C@H](COC(=O)NC4CC4(F)F)c4ccc(Cl)c(-n5ncnc5C(F)F)c4)C3=O)cc2F)n1 (stereo partly drawn) [Compound 295],7.33 nM

# System: not listed separately
# Assay: Liver microsomal stability, human liver microsomes
# Settings: human, liver microsomes
# Method: Liver Microsomal Stability Protocol
# Test compounds and one control compound (verapamil) were tested in 3 different species in duplicate sets.
# Test compound concentration: 1 uM; Protein concentration: 0.5 mg/mL (for dog, rat, and human liver microsomes); Cofactor: NADPH-Regenerating system (NRS) solution; Time-points: 2, 12, 25, 45, and 65 minutes.
# Reaction Composition (in Each Incubation Well) Contains:
# At an incubation temperature of 37° C., the reaction was started with addition of NADPH Regeneration System, at each time point, 25 uL of the reaction mixture was removed and added to a plate with 225 uL quenching solution (50% MeOH, 25% ACN, 25% H2O, and 200 nM labetalol as internal standard). After plates were vortexed, they were centrifuged for 30 minutes to remove proteins. About 100 μL supernatant was removed to a new plate and diluted with 150 μL water. About 20 μL of the mixture was injected into LC/MS/MS system to monitor the compound's response. In vitro measured t1/2 was used to calculate Clint values.
row,half-life at 1 uM,Compound
1,≥ 6.58 h,CC(C)(C)C[C@]1(c2ccc(-c3cnn(C(F)F)c3)cc2)NC(=N)N([C@H](COC(=O)NC(C)(C)C(F)F)c2ccc(Cl)c(-c3nncn3C(F)F)c2)C1=O [Compound 91]
2,≥ 6.58 h,[2H]C([2H])([2H])n1cnc(-c2cc([C@@H](COC(=O)NC(C)(C)C(F)F)N3C(=N)N[C@](C[C@]4(C)CC4(F)F)(c4ccc(-c5cnn(C(F)F)c5)cc4)C3=O)ccc2Cl)n1 [Compound 97]
3,≥ 6.58 h,CC(C)(C)C[C@]1(c2ccc(-c3ncccn3)cc2)NC(=N)N([C@H](COC(=O)NC2(C(F)(F)F)CC2)c2ccc(Cl)c(-c3ncn[nH]3)c2)C1=O [Compound 105]
4,≥ 6.58 h,CC(C)(C)C[C@]1(c2ccc(-c3cnn(C(F)F)c3)cc2F)NC(=N)N([C@H](COC(=O)NC2(C(F)(F)F)CC2)c2ccc(Cl)c(-c3ncn[nH]3)c2)C1=O [Compound 110]
5,≥ 6.58 h,CC(C)(F)C[C@]1(c2ccc(-c3cnn(C(F)F)c3)cc2)NC(=N)N([C@H](COC(=O)NC(C)(C)C(F)F)c2ccc(Cl)c(-c3ncnn3C(F)F)c2)C1=O [Compound 129]
6,≥ 6.58 h,CC(C)(F)C[C@]1(c2ccc(-c3cnn(C(F)F)c3)cc2)NC(=N)N([C@H](COC(=O)NC2(C(F)(F)F)CC2)c2ccc(Cl)c(-c3ncnn3C(F)F)c2)C1=O [Compound 134]
7,≥ 6.58 h,CC(C)(C[C@]1(c2ccc(-c3cnn(C4CC4)c3)cc2)NC(=N)N([C@H](COC(=O)NC2(C(F)(F)F)CC2)c2ccc(Cl)c(-c3ncnn3C(F)F)c2)C1=O)C(F)(F)F [Compound 135]
8,≥ 6.58 h,C[C@H](NC(=O)OC[C@H](c1ccc(Cl)c(-c2ncnn2C(F)F)c1)N1C(=N)N[C@](CC(C)(C)C(F)(F)F)(c2ccc(-c3cnn(C4CC4)n3)cc2)C1=O)C(F)(F)F [Compound 153]
9,≥ 6.58 h,CC(C)(C[C@]1(c2ccc(-c3cnn(C4CC4)n3)cc2)NC(=N)N([C@H](COC(=O)NC2(C(F)(F)F)CC2)c2ccc(Cl)c(-c3ncnn3C(F)F)c2)C1=O)C(F)F [Compound 154]
10,≥ 6.58 h,CC(C)(C[C@]1(c2ccc(-c3cnn(C4CC4)n3)cc2)NC(=N)N([C@H](CNC(=O)CC(F)(F)F)c2ccc(Cl)c(-c3ncnn3C(F)F)c2)C1=O)C(F)(F)F [Compound 160]
11,≥ 6.58 h,C[C@H](NC(=O)OC[C@H](c1ccc(Cl)c(-c2ncnn2C(F)F)c1)N1C(=N)N[C@](CC(C)(C)C)(c2ccc(-c3cnn(C(F)F)n3)cc2)C1=O)C(F)(F)F [Compound 163]
12,≥ 6.58 h,CC(C)(C)C[C@]1(c2ccc(-c3cnn(C(F)F)c3)cc2)NC(=N)N([C@H](COC(=O)NC(C)(C)C(F)(F)F)c2ccc(Cl)c(-n3ncnc3C(F)F)c2)C1=O [Compound 182]
13,≥ 6.58 h,CC(C)(C)C[C@]1(c2ccc(-c3cnn(C4CC4)n3)cc2F)NC(=N)N([C@H](COC(=O)NC2(C(F)(F)F)CC2)c2ccc(Cl)c(-n3ncnc3C(F)F)c2)C1=O [Compound 224]
14,≥ 6.58 h,CC(C)C[C@]1(c2ccc(-c3cnn(C(F)F)c3)cc2F)NC(=N)N([C@H](COC(=O)NC2(C(F)(F)F)CC2)c2ccc(Cl)c(-n3ncnc3C(F)F)c2)C1=O [Compound 278]
15,≥ 6.58 h,Cn1ccc(-c2ccc([C@@]3(CC(C)(C)C)NC(=N)N([C@H](COC(=O)NC4(C(F)(F)F)CC4)c4ccc(Cl)c(-n5ncnc5C(F)F)c4)C3=O)cc2F)n1 [Compound 289]
16,≥ 6.58 h,CC(C)(C)C[C@]1(c2ccc(-c3cnn(S(C)(=O)=O)c3)c(F)c2)NC(=N)N([C@H](COC(=O)NC2(C(F)(F)F)CC2)c2ccc(Cl)c(-n3ncnc3C(F)F)c2)C1=O [Compound 290]
17,≥ 6.58 h,CC(C)(C)C[C@]1(c2ccc(-c3cnn(S(=O)(=O)C4CC4)c3)c(F)c2)NC(=N)N([C@H](COC(=O)NC2(C(F)(F)F)CC2)c2ccc(Cl)c(-n3ncnc3C(F)F)c2)C1=O [Compound 291]
18,≥ 6.58 h,Cn1ccc(-c2ccc([C@@]3(CC(C)(C)C)NC(=N)N([C@H](COC(=O)NC4CC4(F)F)c4ccc(Cl)c(-n5ncnc5C(F)F)c4)C3=O)cc2F)n1 (stereo partly drawn) [Compound 295]

# From patent publication US10774053B2, “HIV protease inhibitors” (Gilead Sciences, Inc., priority 2017, dated 2020)
